Values of other authors, collected in patent US20080063668A1, “Nitroimidazole and terconazole composition and method” (priority 2006, published 2008).
Structures can show the parent of a compound that is named as a salt.

Conditions: neutral pH; cited from earlier work

CC(C)N1CCN(c2ccc(OCC3COC(Cn4cncn4)(c4ccc(Cl)cc4Cl)O3)cc2)CC1 (stereo not shown) [Terconazole hydrochloride]
solubility in water: about 0.007 percent by weight
